Results reported in PubChem BioAssay (NCI).
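GI50 = concentration required for 50% inhibition of growth. The concentration for full growth arrest is given as TGI.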

Assays:
Experiment in all cases: NCI anticancer screen, dose series, 384-well format
SN12C renal = system: SN12C renal
SW-620 colon = system: SW-620 colon
HCT-116 colon = system: HCT-116 colon
SF-539 CNS = system: SF-539 CNS
M14 melanoma = system: M14 melanoma
NCI-H322M lung = system: NCI-H322M lung
HOP-62 NSCLC = system: HOP-62 NSCLC
MDA-MB-435 melanoma = system: MDA-MB-435 melanoma
EKVX NSCLC = system: EKVX NSCLC
RXF 393 renal = system: RXF 393 renal
OVCAR-8 ovarian = system: OVCAR-8 ovarian
SK-OV-3 ovarian = system: SK-OV-3 ovarian
UACC-62 melanoma = system: UACC-62 melanoma
LOX IMVI melanoma = system: LOX IMVI melanoma
COLO 205 colon = system: COLO 205 colon
A498 renal = system: A498 renal
SNB-75 CNS = system: SNB-75 CNS
DU-145 prostate = system: DU-145 prostate
U251 glioblastoma = system: U251 glioblastoma
HCC-2998 colon = system: HCC-2998 colon
NCI/ADR-RES ovarian = system: NCI/ADR-RES ovarian
SF-268 CNS = system: SF-268 CNS
MDA-MB-231 breast = system: MDA-MB-231 breast
RPMI-8226 leukemia = system: RPMI-8226 leukemia
KM12 colon = system: KM12 colon
CCRF-CEM leukemia = system: CCRF-CEM leukemia
K-562 leukemia = system: K-562 leukemia
SNB-19 CNS = system: SNB-19 CNS
HS 578T breast = system: HS 578T breast
NCI-H522 lung = system: NCI-H522 lung
HL-60(TB) leukemia = system: HL-60(TB) leukemia
SK-MEL-5 melanoma = system: SK-MEL-5 melanoma
ACHN renal = system: ACHN renal
HOP-92 NSCLC = system: HOP-92 NSCLC
HCT-15 colon = system: HCT-15 colon
BT-549 breast = system: BT-549 breast
SK-MEL-28 melanoma = system: SK-MEL-28 melanoma
HT29 colon = system: HT29 colon
MOLT-4 leukemia = system: MOLT-4 leukemia
CAKI-1 renal = system: CAKI-1 renal
NCI-H23 lung = system: NCI-H23 lung
MDA-MB-468 breast = system: MDA-MB-468 breast
A549 NSCLC = system: A549 NSCLC
PC-3 prostate = system: PC-3 prostate
NCI-H460 NSCLC = system: NCI-H460 NSCLC
T-47D breast = system: T-47D breast
OVCAR-3 ovarian = system: OVCAR-3 ovarian
786-0 renal = system: 786-0 renal
TK-10 renal = system: TK-10 renal
IGROV1 ovarian = system: IGROV1 ovarian
SR leukemia = system: SR leukemia
MALME-3M melanoma = system: MALME-3M melanoma
UO-31 renal = system: UO-31 renal
UACC-257 melanoma = system: UACC-257 melanoma
OVCAR-4 ovarian = system: OVCAR-4 ovarian
SF-295 CNS = system: SF-295 CNS
MCF7 breast = system: MCF7 breast
NCI-H226 lung = system: NCI-H226 lung

Cn1ncc(NC(=O)c2nc(-c3c(F)cccc3F)sc2N)c1N1CC[C@@H](N)[C@H](F)CC1
GI50 (SN12C renal): 2550 nM
TGI (SN12C renal): 11.1 µM
GI50 (SW-620 colon): 3.29 µM
TGI (SW-620 colon): 12.2 µM
GI50 (HCT-116 colon): 4.01 µM
TGI (HCT-116 colon): 15.6 µM
GI50 (SF-539 CNS): 3.21 µM
TGI (SF-539 CNS): 13.3 µM
GI50 (M14 melanoma): 2440 nM
TGI (M14 melanoma): 14.3 µM
GI50 (NCI-H322M lung): 6.85 µM
TGI (NCI-H322M lung): 21.3 µM
GI50 (HOP-62 NSCLC): 5.55 µM
TGI (HOP-62 NSCLC): 18.3 µM
GI50 (MDA-MB-435 melanoma): 3.2 µM
TGI (MDA-MB-435 melanoma): 15.4 µM
GI50 (EKVX NSCLC): 3.8 µM
TGI (EKVX NSCLC): 17.5 µM
GI50 (RXF 393 renal): 3.15 µM
TGI (RXF 393 renal): 13.1 µM
GI50 (OVCAR-8 ovarian): 7.11 µM
TGI (OVCAR-8 ovarian): 19.7 µM
GI50 (SK-OV-3 ovarian): 1830 nM
TGI (SK-OV-3 ovarian): 9.95 µM
GI50 (UACC-62 melanoma): 3.34 µM
TGI (UACC-62 melanoma): 11.7 µM
GI50 (LOX IMVI melanoma): 4.33 µM
TGI (LOX IMVI melanoma): 14.5 µM
GI50 (COLO 205 colon): 5.42 µM
TGI (COLO 205 colon): 19 µM
GI50 (A498 renal): 3.02 µM
TGI (A498 renal): 13.7 µM
GI50 (SNB-75 CNS): 2930 nM
TGI (SNB-75 CNS): 10.8 µM
GI50 (DU-145 prostate): 4.19 µM
TGI (DU-145 prostate): 15.7 µM
GI50 (U251 glioblastoma): 6.23 µM
TGI (U251 glioblastoma): 18.7 µM
GI50 (HCC-2998 colon): 8.83 µM
TGI (HCC-2998 colon): 21.2 µM
GI50 (NCI/ADR-RES ovarian): 16.5 µM
TGI (NCI/ADR-RES ovarian): 33.2 µM
GI50 (SF-268 CNS): 3.47 µM
TGI (SF-268 CNS): 14.2 µM
GI50 (MDA-MB-231 breast): 4.31 µM
TGI (MDA-MB-231 breast): 16 µM
GI50 (RPMI-8226 leukemia): 45.4 nM
TGI (RPMI-8226 leukemia): 4.12 µM
GI50 (KM12 colon): 6.59 µM
TGI (KM12 colon): 19.3 µM
GI50 (CCRF-CEM leukemia): 1480 nM
TGI (CCRF-CEM leukemia): 3.11 µM
GI50 (K-562 leukemia): 2190 nM
TGI (K-562 leukemia): 10.6 µM
GI50 (SNB-19 CNS): 12.1 µM
TGI (SNB-19 CNS): 26.1 µM
GI50 (HS 578T breast): 2830 nM
TGI (HS 578T breast): 5.52 µM
GI50 (NCI-H522 lung): 2490 nM
TGI (NCI-H522 lung): 9.18 µM
GI50 (HL-60(TB) leukemia): 1510 nM
TGI (HL-60(TB) leukemia): 2910 nM
GI50 (SK-MEL-5 melanoma): 1350 nM
TGI (SK-MEL-5 melanoma): 12.2 µM
GI50 (ACHN renal): 3.25 µM
TGI (ACHN renal): 15.6 µM
GI50 (HOP-92 NSCLC): 3.18 µM
TGI (HOP-92 NSCLC): 13 µM
GI50 (HCT-15 colon): 5.03 µM
TGI (HCT-15 colon): 17.5 µM
GI50 (BT-549 breast): 1720 nM
TGI (BT-549 breast): 5.44 µM
GI50 (SK-MEL-28 melanoma): 10.4 µM
TGI (SK-MEL-28 melanoma): 22.2 µM
GI50 (HT29 colon): 7.09 µM
TGI (HT29 colon): 19.9 µM
GI50 (MOLT-4 leukemia): 1610 nM
TGI (MOLT-4 leukemia): 2980 nM
GI50 (CAKI-1 renal): 1160 nM
TGI (CAKI-1 renal): 4.92 µM
GI50 (NCI-H23 lung): 10.9 µM
TGI (NCI-H23 lung): 23 µM
GI50 (MDA-MB-468 breast): 2800 nM
TGI (MDA-MB-468 breast): 11.6 µM
GI50 (A549 NSCLC): 4.22 µM
TGI (A549 NSCLC): 15.7 µM
GI50 (PC-3 prostate): 3.23 µM
TGI (PC-3 prostate): 12.9 µM
GI50 (NCI-H460 NSCLC): 3.49 µM
TGI (NCI-H460 NSCLC): 12.6 µM
GI50 (T-47D breast): 15.3 µM
TGI (T-47D breast): 30 µM
GI50 (OVCAR-3 ovarian): 3.89 µM
TGI (OVCAR-3 ovarian): 14.9 µM
GI50 ([…]-0 renal): 4.22 µM
TGI (786-0 renal): 14.8 µM
GI50 (TK-10 renal): 2880 nM
TGI (TK-10 renal): 15.4 µM
GI50 (IGROV1 ovarian): 3.69 µM
TGI (IGROV1 ovarian): 13.7 µM
GI50 (SR leukemia): 47.1 nM
TGI (SR leukemia): 602 nM
GI50 (MALME-3M melanoma): 2580 nM
TGI (MALME-3M melanoma): 12.7 µM
GI50 (UO-31 renal): 1960 nM
TGI (UO-31 renal): 5.94 µM
GI50 (UACC-257 melanoma): 7.52 µM
TGI (UACC-257 melanoma): 20 µM
GI50 (OVCAR-4 ovarian): 18.9 µM
TGI (OVCAR-4 ovarian): 34.2 µM
GI50 (SF-295 CNS): 5.52 µM
TGI (SF-295 CNS): 17.8 µM
GI50 (MCF7 breast): 2820 nM
TGI (MCF7 breast): 10.9 µM
GI50 (NCI-H226 lung): 2220 nM
TGI (NCI-H226 lung): 9.62 µM
